In US20260306460A1, “COMPOSITION FOR REMOVING AND INHIBITING SENESCENT CELLS, AND USES THEREOF” (LIFECEUTIX CO., LTD., priority 2023, published 2026):

What was measured:
[1] = system: HMGN1 secreted from senescent A549 cells; experiment: HMGN1 secretion (ELISA) from senescent A549 cancer cells, Example 12; type: cell-based, human; conditions: senescent untreated = 100%; 30 μM; 90 μM for LX-305, 905, 1302, 1601, 1603, 2003, 2702, 2901, 3106; 270 μM for LX-1103, 2005, 2007;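 further: A549 cells made senescent by doxorubicin exposure, with DMSO-treated cells serving as the non-senescent control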
Method: Cells were treated with doxorubicin or control (DMSO) and cultured.

[2] = system: bleomycin-induced pulmonary fibrosis mice; experiment: Bleomycin-induced pulmonary fibrosis mice, Example 31, Table 56; type: in vivo, mouse; conditions: untreated = 100%
Method in brief: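 Mice with bleomycin-induced pulmonary fibrosis, untreated or given test compound, with vehicle-only controls. Lung tissue collected for RNA extraction and qRT-PCR analysis.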

[3] = system: naturally aged mice; experiment: Anti-aging evaluation in naturally aged mice, Example 31, Table 55; type: in vivo, mouse; conditions: for Femur Ctsk mRNA / Kidney Agtr1a mRNA / Liver IL6 mRNA / Liver MMP3 mRNA / Liver p16 mRNA / Open Field Test Time in Center: untreated = 100%; for Heart Sur2a mRNA / Joint Col2a1 mRNA / Skin Col1a1 mRNA / Skin SDF1 mRNA: untreated = 1.0; for Muscle Mass: untreated 0.64 g; for Fat Mass: untreated 0.82 g; for Cataract incidence: untreated 83%;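 on all read-outs here: Vehicle-dosed control mice received solution alone at matching volume, values compare test-compound-treated aged mice against that control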
Method: After the end of drug administration, the method described in each example below was performed. […] The mRNA amounts of p16, MMP3, and IL6 after natural aging was induced were calculated as 100% and compared with the mRNA amounts of p16, MMP3, and IL6 after treatment with the test compound. In addition, an open field test for the analysis of aging-related frailty, agtr1a mRNA analysis for kidney damage and disease evaluation, col1a1 and SDF1 mRNA analysis for skin aging evaluation such as wrinkles/loss of elasticity/hyperpigmentation, col2a1 mRNA analysis for evaluating joint aging such as osteoarthritis, sur2a mRNA analysis for evaluating cardiac aging such as decreased cardiac load resistance, ctsk mRNA analysis for evaluating bone diseases due to aging such as osteoporosis, muscle tissue weight for analyzing sarcopenia, fat tissue weight for analyzing lipoatrophy, and cataract incidence analysis were performed in mice. For cataract incidence analysis, the drug was administered twice a week under the conditions specified above, and biweekly examinations were conducted until death.

[4] = system: senescent foreskin cells; experiment: Survival of senescent human cells treated with supernatant (secreted fluid) from death-induced cells, Example 13; type: cell-based; conditions: Table 8; supernatant from dying senescent cells treated at 30, 90 or 270 μM (as Example 11); senescent treated cells
[5] = system: carbon tetrachloride-induced liver fibrosis mice; experiment: Carbon tetrachloride-induced liver fibrosis mice, Example 31, Table 57; type: in vivo, mouse; conditions: CCl4-induced liver fibrosis mice, untreated = 100%
Method in brief: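 Mice with induced hepatic fibrosis received either the test compound or, as controls, an equal volume of vehicle solution alone. Once dosing ended, liver tissue was harvested and total RNA was isolated. cDNA was synthesized from this RNA, and quantitative RT-PCR was run on it to measure hepatic mRNA levels of the fibrosis- and senescence-related genes.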

SMILES | HMGN1 [1] | Lung p16 mRNA [2] | Col1a1 mRNA [2] | Femur Ctsk mRNA [3] | Heart Sur2a mRNA [3] | Joint Col2a1 mRNA [3] | Kidney Agtr1a mRNA [3] | Liver IL6 mRNA [3] | Liver MMP3 mRNA [3] | Liver p16 mRNA [3] | Open Field Test Time in Center [3] | Skin Col1a1 mRNA [3] | Skin SDF1 mRNA [3] | Muscle Mass [3] | Fat Mass [3] | Cataract incidence [3] | Survival [4] | Liver p16 mRNA [5] | Col1a1 mRNA [5]
NCC(=O)CCC(=O)O [LX-1103, 5-Aminolevulinic acid] | 158% | 73 (±3.2) % | 76 (±5.3) % | 78% | 2.4 fold | 2.8 fold | 76% | 70% | 68% | 47% | 183% | 2.3 Fold | 1.7 fold | 0.68 g | 0.89 g | 54% | 101.8 | 77 (±3.5) % | 60 (±6.9) %
O=C(O)c1cc(/N=N/c2ccc(S(=O)(=O)Nc3ccccn3)cc2)ccc1O [LX-1302, Sulfasalazine] | 147% | 41 (±1.5) % | 59 (±2.6) % | 75% | 2.3 fold | 2.5 fold | 62% | 48% | 47% | 55% | 201% | 2.4 Fold | 1.8 fold | 0.70 g | 0.92 g | 73% | 98.5 | 52 (±4.4) % | 48 (±3.2) %
Cc1oncc1C(=O)Nc1ccc(C(F)(F)F)cc1 [LX-1603, Leflunomide] | 163% | 78 (±6.1) % | 48 (±2.5) % | 64% | 2.0 fold | 2.3 fold | 77% | 61% | 73% | 74% | – | 2.6 Fold | 1.7 fold | 0.69 g | 0.92 g | 78% | 97.5 | 67 (±3.5) % | 54 (±2.9) %
CO[C@]1(C(=O)N[C@@H](C)c2ccc(-n3cc(F)cn3)nc2)CC[C@H](c2nc(C)cc(Nc3cc(C)[nH]n3)n2)CC1 [LX-1902, Pralsetinib] | 271% | 72 (±8.8) % | 64 (±8.2) % | 81% | 1.5 fold | 1.5 fold | 71% | 79% | 81% | 72% | 157% | 1.2 Fold | 1.6 fold | 0.68 g | 0.95 g | 76% | 53.4 | 77 (±9.6) % | 68 (±5.7) %
CC/C=C\C/C=C\C/C=C\C/C=C\C/C=C\C/C=C\CCC(=O)O [LX-2702, Docosahexaenoic acid] | 237% | 53 (±2.8) % | 43 (±5.9) % | 50% | 2.3 fold | 2.8 fold | 57% | 54% | 73% | 80% | 211% | 1.8 Fold | 2.7 fold | 0.72 g | 1.13 g | 66% | 68.6 | 46 (±3.2) % | 53 (±6.1) %
